Reference: patent publication US20050282818A1, “Ubiquitin ligase inhibitors” (Rigel Pharmaceuticals, Inc., priority 2004, published 2005)

Columns and labels:
APC11/APC2 = APC11/APC2 (Homo sapiens, UniProt Q9NYG5+Q9UJX6); experiment: APC-11/APC-2 ligase assay (APC auto ubiquitination); assay type: biochemical; settings: APC assay
Protocol: For the assays described below, the TRAF6/Uev1A/UBC13 assay is the biochemical plate-based assay of TRAF6 ligase activity using Ubc13 as the E2 enzyme. The gel-based assay is the biochemical solution-based TRAF6 ligase assay (by SDS-PAGE and Western blot) to confirm the plate-based ELISA assay. The APC assay is an assay which is another E3 ligase (APC2/APC11) biochemical assay.
E3 (His APC11/APC2— “APC”) auto ubiquitination was measured as described in U.S. patent application Ser. No. 09/826,312 (Publication No. U.S. 2002 0042083 A1), which is incorporated by reference in its entirety. Details of the protocol are described below. Activity in the presence of the compound was determined relative to a parallel control in which only DMSO was added. Values of the IC50 were typically determined using 6 or 8 different concentrations of the compound, although as few as 2 concentrations may be used to approximate the IC50 value.
Nickel coated 96 well plates (Pierce 15242) were blocked for 1 hour with 100 μl of blocking buffer at room temperature. The plates were washed 4 times with 225 μl of 1 […]PBS and 80 μl of the reaction buffer were added that contained 100 ng/well of Flag ubiquitin. To this, 10 μl of the test compound diluted in DMSO were added. After the test compound was added, 10 μl of E1 (human), E2 (Ubch5c), and APC in Protein Buffer was added to obtain a final concentration of 5 ng/well of E1, 20 ng/well of E2 and 100 ng/well of APC. The plates were shaken for 10 minutes and incubated at room temperature for 1 hour. After incubation, the plates were washed 4 times with 225 μl of 1×PBS and 100 μl/well of Antibody Mix were added to each well. The plates were incubated at room temperature for another hour after which they were washed 4 times with 225 μl of 1×PBS and 100 μl/well of Lumino substrate were added to each well. The luminescence was measured by using a BMG luminescence microplate reader. The Blocking Buffer (1% Casein in 1×PBS) was stored at 4° C. until use.
The reaction buffer consisted of 62.5 mM Tris pH 7.6 (Trizma Base—Sigma T 8524), 3 mM MgCl2 (Magnesium Chloride—Sigma M 2393), 1 mM DTT (Sigma D 9779), 2.5 mM ATP (Roche Boehringer Mann Corp. 635 316), 100 ng/well of Flag ubiquitin, 0.1% BSA (Sigma A 7906), and 0.05% Tween 20 (Sigma P 7949).
The Protein Buffer consisted of 20 mM Tris pH 7.6, 10% glycerol (Sigma G 5516) and 1 mM DTT.
The antibody mix consisted of 0.25% BSA (Sigma A 7906) in 1×PBS, 1/50,000 anti Flag (Sigma F 3165), 1/100,000 of anti Mouse IgG HRP (Jackson Imrunoresearch #115 035 146).
The substrate mix consisted of SuperSignal Substrate from Pierce (catalog number 37070ZZ) and was prepared by mixing 100 ml of the peroxide solution, 100 ml of the enhancer solution and 100 ml of Milli Q® water.

[1] = tested on: ICAM-1 expression in A549 cells; experiment: ICAM assay (IL-1 induced ICAM-1/CD54 expression in A549 cells); assay type: cell-based, human; settings: Homo sapiens, A549, ICAM assay
Method in brief: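 A549 cells, 10,000/well, preincubated with compound 1 h at 37° C, then stimulated with IL-1 (4 μl of 25 ng/ml added) for 4 h. Surface ICAM-1 detected by anti-CD54 plus anti-mouse IgG staining for 1 h, luminescent read-out after PBS washes.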

TRAF6/Uev1A/Ubc13 = target: T1, TRAF6/Uev1A/Ubc13 (Homo sapiens, UniProt Q9Y4K3); experiment: TRAF6/Uev1A/Ubc13 plate-based ubiquitin ligase assay; assay type: biochemical
T1 sequence (Q9Y4K3 1-522): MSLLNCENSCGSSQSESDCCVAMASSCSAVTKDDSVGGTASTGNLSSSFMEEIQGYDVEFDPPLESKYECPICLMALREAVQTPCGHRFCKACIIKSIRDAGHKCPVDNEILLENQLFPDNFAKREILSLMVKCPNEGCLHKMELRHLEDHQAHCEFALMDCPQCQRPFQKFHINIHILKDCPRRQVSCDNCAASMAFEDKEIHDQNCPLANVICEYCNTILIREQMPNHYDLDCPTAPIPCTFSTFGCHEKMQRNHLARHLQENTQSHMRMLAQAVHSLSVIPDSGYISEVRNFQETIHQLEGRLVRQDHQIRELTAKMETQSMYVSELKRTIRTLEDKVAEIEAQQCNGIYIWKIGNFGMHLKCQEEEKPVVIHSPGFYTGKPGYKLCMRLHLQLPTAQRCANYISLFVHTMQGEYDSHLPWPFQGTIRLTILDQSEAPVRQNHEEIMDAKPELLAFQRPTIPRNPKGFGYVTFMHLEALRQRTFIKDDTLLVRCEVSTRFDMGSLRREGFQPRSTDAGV
Method in brief: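 Ligase activity was read as luminescence from anti-Flag/HRP detection of Flag-ubiquitin bound to casein-blocked Ni-plates alongside His-ubiquitin after a 1 h room-temperature reaction. Buffer: 62.5 mM Tris pH 7.5, 6.25 mM MgCl2, 1.0 mM DTT, 2 μM ATP; E1, Uev1a/Ubc13 and TRAF6 added last to start. IC50s derived across compound concentrations.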

Chain of APC11/APC2 (Q9NYG5 whole entry): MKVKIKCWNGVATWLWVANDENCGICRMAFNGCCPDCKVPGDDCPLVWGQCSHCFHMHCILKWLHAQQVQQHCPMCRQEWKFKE
Chain of APC11/APC2 (Q9UJX6 whole entry): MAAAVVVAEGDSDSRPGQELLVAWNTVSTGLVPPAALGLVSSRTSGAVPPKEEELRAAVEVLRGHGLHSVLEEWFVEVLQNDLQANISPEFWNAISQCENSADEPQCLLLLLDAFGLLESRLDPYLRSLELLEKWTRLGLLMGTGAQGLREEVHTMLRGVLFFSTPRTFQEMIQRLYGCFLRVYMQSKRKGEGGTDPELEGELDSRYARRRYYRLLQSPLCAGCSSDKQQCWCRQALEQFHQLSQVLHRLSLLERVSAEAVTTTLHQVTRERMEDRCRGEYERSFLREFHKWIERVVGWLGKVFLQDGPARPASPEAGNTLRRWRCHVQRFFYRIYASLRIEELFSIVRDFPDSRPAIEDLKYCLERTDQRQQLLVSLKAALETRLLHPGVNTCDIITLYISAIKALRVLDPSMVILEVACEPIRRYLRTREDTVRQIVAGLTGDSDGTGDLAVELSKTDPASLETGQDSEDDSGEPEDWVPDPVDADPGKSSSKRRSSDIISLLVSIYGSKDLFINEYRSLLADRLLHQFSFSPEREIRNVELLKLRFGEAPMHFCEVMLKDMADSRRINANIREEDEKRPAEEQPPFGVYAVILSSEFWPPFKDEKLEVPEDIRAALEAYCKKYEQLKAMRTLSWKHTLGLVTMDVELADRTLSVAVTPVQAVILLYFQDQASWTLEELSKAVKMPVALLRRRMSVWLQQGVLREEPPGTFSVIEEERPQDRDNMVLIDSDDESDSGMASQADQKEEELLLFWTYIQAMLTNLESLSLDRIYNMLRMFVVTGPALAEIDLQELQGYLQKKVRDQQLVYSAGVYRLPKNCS

IC50 (APC11/APC2) [µM] | IC50 [1] [µM] | IC50 (TRAF6/Uev1A/Ubc13) [µM] | Structure (SMILES)
≥ 20 | ≥ 20 | 1 to 20 | COC(=O)c1ccc(Cl)cc1Nc1ccc(S(=O)(=O)Nc2cc(Cl)ccc2C(=O)OC)c2nonc12 [compound 361, methyl 4-chloro-2-(7-[N-{5-chloro-2-(methoxycarbonyl)phenyl}sulfamoyl]-2,1,3-benzoxadiazol-4-ylamino)benzoate]
≥ 20 | 1 to 20 | ≥ 20 | COc1cc(Cl)c(C)cc1NS(=O)(=O)c1ccc(Cl)c2nonc12 [compound 362, 7-chloro-N-(4-chloro-2-methoxy-5-methylphenyl)-2,1,3-benzoxadiazole-4-sulfonamide]
≥ 20 | 1 to 20 | ≥ 20 | O=S(=O)(Nc1ccc2[nH]ccc2c1)c1ccc(Cl)c2nonc12 [compound 363, 7-chloro-N-(1H-indol-5-yl)-2,1,3-benzoxadiazole-4-sulfonamide]
≥ 20 | ≥ 20 | ≥ 20 | O=S(=O)(Nc1ccc(F)cc1F)c1ccc(Cl)c2nonc12 [compound 364, 7-chloro-N-(2,4-difluorophenyl)-2,1,3-benzoxadiazole-4-sulfonamide]
≥ 20 | ≥ 20 | ≥ 20 | O=S(=O)(Nc1cc(Cl)ccc1Cl)c1ccc(Cl)c2nonc12 [compound 365, 7-chloro-N-(2,5-dichlorophenyl)-2,1,3-benzoxadiazole-4-sulfonamide]
≥ 20 | 1 to 20 | ≥ 20 | O=S(=O)(Nc1ccccc1OC(F)(F)F)c1ccc(Cl)c2nonc12 [compound 366, 7-chloro-N-(2-[trifluoromethoxy]phenyl)-2,1,3-benzoxadiazole-4-sulfonamide]
≥ 20 | ≥ 20 | ≥ 20 | COc1ccc(OC)c(NS(=O)(=O)c2ccc(Nc3ccccc3OC)c3nonc23)c1 [compound 367, N-(2,5-dimethoxyphenyl)-7-([2-methoxyphenyl]amino)-2,1,3-benzoxadiazole-4-sulfonamide]
≥ 20 | ≥ 20 | ≥ 20 | Cc1cc(NS(=O)(=O)c2ccc(Cl)c3nonc23)no1 [compound 368, 7-chloro-N-(5-methylisoxazol-3-yl)-2,1,3-benzoxadiazole-4-sulfonamide]
≥ 20 | ≥ 20 | ≥ 20 | COc1ccc(OC)c(NS(=O)(=O)c2ccc(N3CCOCC3)c3nonc23)c1 [compound 369, N-(2,5-dimethoxyphenyl)-7-(morpholin-4-yl)-2,1,3-benzoxadiazole-4-sulfonamide]
≥ 20 | 1 to 20 | ≥ 20 | Cc1cc2cc(NS(=O)(=O)c3ccc(Cl)c4nonc34)ccc2[nH]1 [compound 370, 7-chloro-N-(2-methyl-1H-indol-5-yl)-2,1,3-benzoxadiazole-4-sulfonamide]
≥ 20 | ≥ 20 | ≥ 20 | O=S(=O)(Nc1ccc(F)cc1F)c1ccc(Nc2ccc(F)cc2F)c2nonc12 [compound 371, N-(2,4-difluorophenyl)-7-([2,4-difluorophenyl]amino)-2,1,3-benzoxadiazole-4-sulfonamide]
≥ 20 | ≥ 20 | ≥ 20 | O=S(=O)(Nc1ccccc1F)c1ccc(N2CCOCC2)c2nonc12 [compound 372, N-(2-fluorophenyl)-7-(morpholin-4-yl)-2,1,3-benzoxadiazole-4-sulfonamide]
1 to 20 | 1 to 20 | ≥ 20 | O=[N+]([O-])c1ccc(Nc2ccccc2OC(F)(F)F)c2nonc12 [compound 373]
≥ 20 | ≥ 20 | ≥ 20 | O=S(=O)(Nc1ccncn1)c1ccc(Cl)c2nonc12 [compound 374, 7-chloro-N-1,3-pyrimidin-4-yl-2,1,3-benzoxadiazole-4-sulfonamide]
≥ 20 | ≥ 20 | ≥ 20 | Nc1ccc(N2CCOCC2)c2nonc12 [compound 375, 7-(morpholin-4-yl)-2,1,3-benzoxadiazol-4-amine]
1 to 20 | ≥ 20 | ≥ 20 | O=S(=O)(Nc1cccc(F)c1F)c1ccc(Sc2cccc3cccnc23)c2nonc12 [compound 376, N-(2,3-difluorophenyl)-7-(quinolin-8-ylthio)-2,1,3-benzoxadiazole-4-sulfonamide]
≥ 20 | ≥ 20 | ≥ 20 | O=S(=O)(Nc1cccc(F)c1F)c1ccc(Sc2ccncn2)c2nonc12 [compound 377, N-(2,3-difluorophenyl)-7-(pyrimidin-4-ylthio)-2,1,3-benzoxadiazole-4-sulfonamide]
1 to 20 | ≥ 20 | ≥ 20 | COc1ccccc1Sc1ccc(S(=O)(=O)Nc2cccc(F)c2F)c2nonc12 [compound 378, N-(2,3-difluorophenyl)-7-([2-methoxyphenyl]thio)-2,1,3-benzoxadiazole-4-sulfonamide]
1 to 20 | ≥ 20 | 1 to 20 | O=S(=O)(Nc1cccc(F)c1F)c1ccc(Sc2cccc3ccccc23)c2nonc12 [compound 379, N-(2,3-difluorophenyl)-7-(naphthalen-1-ylthio)-2,1,3-benzoxadiazole-4-sulfonamide]
≥ 20 | 1 to 20 | ≥ 20 | O=S(=O)(Nc1ncccc1OCc1ccccc1)c1ccc(Cl)c2nonc12 [compound 380, N-(3-benzyloxypyridin-2-yl)-7-chloro-2,1,3-benzoxadiazole-4-sulfonamide]
≥ 20 | 1 to 20 | ≥ 20 | COc1ccc(C)cc1NS(=O)(=O)c1ccc(Cl)c2nonc12 [compound 381, 7-chloro-N-(2-methoxy-5-methylphenyl)-2,1,3-benzoxadiazole-4-sulfonamide]
≥ 20 | ≥ 20 | ≥ 20 | O=S(=O)(Nc1ncccc1OCc1ccccc1)c1ccc(N2CCOCC2)c2nonc12 [compound 382, N-(3-benzyloxypyridin-2-yl)-7-(morpholin-4-yl)-2,1,3-benzoxadiazole-4-sulfonamide]
1 to 20 | 1 to 20 | 1 to 20 | O=S(=O)(Nc1cccc2ccc(O)cc12)c1ccc(Cl)c2nonc12 [compound 383, 7-chloro-N-(7-hydroxynaphthalen-1-yl)-2,1,3-benzoxadiazole-4-sulfonamide]
≥ 20 | ≥ 20 | 1 to 20 | COc1ccc(C)cc1NS(=O)(=O)c1ccc(Sc2cccc3cccnc23)c2nonc12 [compound 384, N-(2-methoxy-5-methylphenyl)-7-(quinolin-8-ylthio)-2,1,3-benzoxadiazole-4-sulfonamide]
